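GI50 is the concentration that inhibits growth by half. TGI is the concentration that stops growth completely.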
How the values were obtained:
Experiment in all cases: inhibition of tumour cell growth, NCI panel, 384-well format
RPMI-8226 leukemia = system: RPMI-8226 leukemia
SK-MEL-5 melanoma = system: SK-MEL-5 melanoma
SNB-19 CNS = system: SNB-19 CNS
NCI-H226 lung = system: NCI-H226 lung
SW-620 colon = system: SW-620 colon
HCT-15 colon = system: HCT-15 colon
HOP-92 NSCLC = system: HOP-92 NSCLC
SNB-75 CNS = system: SNB-75 CNS
CAKI-1 renal = system: CAKI-1 renal
SN12C renal = system: SN12C renal
SF-295 CNS = system: SF-295 CNS
DU-145 prostate = system: DU-145 prostate
MALME-3M melanoma = system: MALME-3M melanoma
OVCAR-5 ovarian = system: OVCAR-5 ovarian
ACHN renal = system: ACHN renal
U251 glioblastoma = system: U251 glioblastoma
MOLT-4 leukemia = system: MOLT-4 leukemia
IGROV1 ovarian = system: IGROV1 ovarian
OVCAR-3 ovarian = system: OVCAR-3 ovarian
COLO 205 colon = system: COLO 205 colon
SR leukemia = system: SR leukemia
SF-539 CNS = system: SF-539 CNS
NCI-H460 NSCLC = system: NCI-H460 NSCLC
HT29 colon = system: HT29 colon
SF-268 CNS = system: SF-268 CNS
NCI-H322M lung = system: NCI-H322M lung
OVCAR-8 ovarian = system: OVCAR-8 ovarian
HCC-2998 colon = system: HCC-2998 colon
UACC-62 melanoma = system: UACC-62 melanoma
NCI/ADR-RES ovarian = system: NCI/ADR-RES ovarian
KM12 colon = system: KM12 colon
MDA-MB-468 breast = system: MDA-MB-468 breast
CCRF-CEM leukemia = system: CCRF-CEM leukemia
BT-549 breast = system: BT-549 breast
HOP-62 NSCLC = system: HOP-62 NSCLC
M14 melanoma = system: M14 melanoma
PC-3 prostate = system: PC-3 prostate
MDA-MB-435 melanoma = system: MDA-MB-435 melanoma
SK-MEL-28 melanoma = system: SK-MEL-28 melanoma
SK-OV-3 ovarian = system: SK-OV-3 ovarian
TK-10 renal = system: TK-10 renal
NCI-H23 lung = system: NCI-H23 lung
HL-60(TB) leukemia = system: HL-60(TB) leukemia
HS 578T breast = system: HS 578T breast
RXF 393 renal = system: RXF 393 renal
EKVX NSCLC = system: EKVX NSCLC
A549 NSCLC = system: A549 NSCLC
T-47D breast = system: T-47D breast
MCF7 breast = system: MCF7 breast
OVCAR-4 ovarian = system: OVCAR-4 ovarian
MDA-MB-231 breast = system: MDA-MB-231 breast
SK-MEL-2 melanoma = system: SK-MEL-2 melanoma
786-0 renal = system: 786-0 renal
UACC-257 melanoma = system: UACC-257 melanoma
NCI-H522 lung = system: NCI-H522 lung

## Nc1ncn([C@@H]2S[C@H](CO)[C@@H](O)[C@@H]2F)c(=O)n1
RPMI-8226 leukemia
  GI50: 2160 nM
  TGI: 4420 nM
SK-MEL-5 melanoma
  GI50: 435 nM
  TGI: 2760 nM
SNB-19 CNS
  GI50: 461 nM
  TGI: 7050 nM
NCI-H226 lung
  GI50: 1010 nM
  TGI: 3800 nM
SW-620 colon
  GI50: 887 nM
  TGI: > 100000 nM
HCT-15 colon
  GI50: 1850 nM
  TGI: > 100000 nM
HOP-92 NSCLC
  GI50: 314 nM
  TGI: > 100000 nM
SNB-75 CNS
  GI50: 15600 nM
  TGI: > 100000 nM
CAKI-1 renal
  GI50: 625 nM
  TGI: > 100000 nM
SN12C renal
  GI50: 604 nM
  TGI: 2910 nM
SF-295 CNS
  GI50: 2440 nM
  TGI: 17800 nM
DU-145 prostate
  GI50: 389 nM
  TGI: 3950 nM
MALME-3M melanoma
  GI50: 366 nM
  TGI: 2660 nM
OVCAR-5 ovarian
  GI50: 691 nM
  TGI: 7730 nM
ACHN renal
  GI50: 224 nM
  TGI: 490 nM
U251 glioblastoma
  GI50: 2410 nM
  TGI: 23600 nM
MOLT-4 leukemia
  GI50: 28.7 nM
  TGI: 110 nM
IGROV1 ovarian
  GI50: 2030 nM
  TGI: > 100000 nM
OVCAR-3 ovarian
  GI50: 853 nM
  TGI: > 100000 nM
COLO 205 colon
  GI50: 268 nM
  TGI: 788 nM
SR leukemia
  GI50: 414 nM
  TGI: 1400 nM
SF-539 CNS
  GI50: 3750 nM
  TGI: 18600 nM
NCI-H460 NSCLC
  GI50: 238 nM
  TGI: 724 nM
HT29 colon
  GI50: 2380 nM
  TGI: > 100000 nM
SF-268 CNS
  GI50: 1050 nM
  TGI: 4990 nM
NCI-H322M lung
  GI50: 2910 nM
  TGI: > 100000 nM
OVCAR-8 ovarian
  GI50: 255 nM
  TGI: 1830 nM
HCC-2998 colon
  GI50: 267 nM
  TGI: 14100 nM
UACC-62 melanoma
  GI50: 3640 nM
  TGI: 19700 nM
NCI/ADR-RES ovarian
  GI50: 291 nM
  TGI: 1380 nM
KM12 colon
  GI50: 1410 nM
  TGI: > 100000 nM
MDA-MB-468 breast
  GI50: 2370 nM
  TGI: 8070 nM
CCRF-CEM leukemia
  GI50: 26.6 nM
  TGI: 96.1 nM
BT-549 breast
  GI50: 1340 nM
  TGI: 8750 nM
HOP-62 NSCLC
  GI50: 423 nM
  TGI: 2590 nM
M14 melanoma
  GI50: 290 nM
  TGI: 833 nM
PC-3 prostate
  GI50: 1430 nM
  TGI: > 100000 nM
MDA-MB-435 melanoma
  GI50: 1730 nM
  TGI: > 100000 nM
SK-MEL-28 melanoma
  GI50: 507 nM
  TGI: 4920 nM
SK-OV-3 ovarian
  GI50: 299 nM
  TGI: 2200 nM
TK-10 renal
  GI50: 988 nM
  TGI: > 100000 nM
NCI-H23 lung
  GI50: 269 nM
  TGI: 805 nM
HL-60(TB) leukemia
  GI50: 241 nM
  TGI: 495 nM
HS 578T breast
  GI50: 984 nM
  TGI: > 100000 nM
RXF 393 renal
  GI50: 2770 nM
  TGI: 44800 nM
EKVX NSCLC
  GI50: 6470 nM
  TGI: > 100000 nM
A549 NSCLC
  GI50: 409 nM
  TGI: > 100000 nM
T-47D breast
  GI50: 10400 nM
  TGI: > 100000 nM
MCF7 breast
  GI50: 663 nM
  TGI: > 100000 nM
OVCAR-4 ovarian
  GI50: > 100000 nM
  TGI: > 100000 nM
MDA-MB-231 breast
  GI50: 1140 nM
  TGI: 81100 nM
SK-MEL-2 melanoma
  GI50: 392 nM
  TGI: 692 nM
786-0 renal
  GI50: 254 nM
  TGI: 1540 nM
UACC-257 melanoma
  GI50: 58700 nM
  TGI: > 100000 nM
NCI-H522 lung
  GI50: 628 nM
  TGI: > 100000 nM

Source: PubChem BioAssay (NCI)
